Data published in patent US11040981B2, “Pyrrolotriazine compounds and methods of inhibiting TAM kinases” (Syros Pharmaceuticals, Inc., priority 2017, dated 2021).

Key:
[1] = molecular target: T1, FLT3 (Homo sapiens, UniProt P36888); test: TR-FRET kinase activity assay, FLT3; format: biochemical; details: ATP at Km, 60 minutes
T1 sequence (P36888 27-993): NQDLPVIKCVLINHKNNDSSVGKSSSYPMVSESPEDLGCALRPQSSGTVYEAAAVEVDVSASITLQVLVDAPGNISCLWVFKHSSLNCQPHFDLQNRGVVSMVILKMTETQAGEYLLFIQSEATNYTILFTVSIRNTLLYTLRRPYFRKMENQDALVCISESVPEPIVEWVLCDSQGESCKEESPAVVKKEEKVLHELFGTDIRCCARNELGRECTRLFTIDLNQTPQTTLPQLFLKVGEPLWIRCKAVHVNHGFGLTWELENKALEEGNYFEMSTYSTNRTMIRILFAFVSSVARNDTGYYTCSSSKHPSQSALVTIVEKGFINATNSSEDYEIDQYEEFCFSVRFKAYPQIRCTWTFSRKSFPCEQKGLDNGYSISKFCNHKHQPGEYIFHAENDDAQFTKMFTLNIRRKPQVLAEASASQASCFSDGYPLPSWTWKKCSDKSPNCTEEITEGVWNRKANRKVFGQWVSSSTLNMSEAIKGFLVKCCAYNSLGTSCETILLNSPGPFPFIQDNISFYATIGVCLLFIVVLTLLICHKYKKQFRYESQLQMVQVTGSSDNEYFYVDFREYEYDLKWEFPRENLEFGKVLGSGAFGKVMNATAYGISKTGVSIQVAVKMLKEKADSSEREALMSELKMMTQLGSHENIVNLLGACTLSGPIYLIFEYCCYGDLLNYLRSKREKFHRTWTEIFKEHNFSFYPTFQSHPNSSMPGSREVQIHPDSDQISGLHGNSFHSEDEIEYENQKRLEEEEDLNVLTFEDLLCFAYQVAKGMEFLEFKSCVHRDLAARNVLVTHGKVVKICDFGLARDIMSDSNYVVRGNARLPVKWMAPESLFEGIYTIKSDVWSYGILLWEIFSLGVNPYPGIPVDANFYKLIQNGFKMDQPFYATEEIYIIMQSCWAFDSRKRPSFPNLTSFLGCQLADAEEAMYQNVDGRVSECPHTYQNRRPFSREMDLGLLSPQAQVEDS
In short: (§1)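 Recombinant human kinases, fluorescent peptide substrate, ATP at Km; 1 h RT, pH 7.5. EDTA-quenched, Eu antibody added, TR-FRET read; IC50 determined.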

[2] = molecular target: T2, MERTK (Homo sapiens, UniProt Q12866); test: TR-FRET kinase activity assay, MERTK; format: biochemical; details: for IC50: TR-FRET activity assay, ATP at Km, 60 minutes, read-out: Mer IC50; for FLT3/Mer ratio (FLT3 IC50/Mer IC50): ratio calculated as FLT3 IC50/Mer IC50
T2 sequence (Q12866 21-999): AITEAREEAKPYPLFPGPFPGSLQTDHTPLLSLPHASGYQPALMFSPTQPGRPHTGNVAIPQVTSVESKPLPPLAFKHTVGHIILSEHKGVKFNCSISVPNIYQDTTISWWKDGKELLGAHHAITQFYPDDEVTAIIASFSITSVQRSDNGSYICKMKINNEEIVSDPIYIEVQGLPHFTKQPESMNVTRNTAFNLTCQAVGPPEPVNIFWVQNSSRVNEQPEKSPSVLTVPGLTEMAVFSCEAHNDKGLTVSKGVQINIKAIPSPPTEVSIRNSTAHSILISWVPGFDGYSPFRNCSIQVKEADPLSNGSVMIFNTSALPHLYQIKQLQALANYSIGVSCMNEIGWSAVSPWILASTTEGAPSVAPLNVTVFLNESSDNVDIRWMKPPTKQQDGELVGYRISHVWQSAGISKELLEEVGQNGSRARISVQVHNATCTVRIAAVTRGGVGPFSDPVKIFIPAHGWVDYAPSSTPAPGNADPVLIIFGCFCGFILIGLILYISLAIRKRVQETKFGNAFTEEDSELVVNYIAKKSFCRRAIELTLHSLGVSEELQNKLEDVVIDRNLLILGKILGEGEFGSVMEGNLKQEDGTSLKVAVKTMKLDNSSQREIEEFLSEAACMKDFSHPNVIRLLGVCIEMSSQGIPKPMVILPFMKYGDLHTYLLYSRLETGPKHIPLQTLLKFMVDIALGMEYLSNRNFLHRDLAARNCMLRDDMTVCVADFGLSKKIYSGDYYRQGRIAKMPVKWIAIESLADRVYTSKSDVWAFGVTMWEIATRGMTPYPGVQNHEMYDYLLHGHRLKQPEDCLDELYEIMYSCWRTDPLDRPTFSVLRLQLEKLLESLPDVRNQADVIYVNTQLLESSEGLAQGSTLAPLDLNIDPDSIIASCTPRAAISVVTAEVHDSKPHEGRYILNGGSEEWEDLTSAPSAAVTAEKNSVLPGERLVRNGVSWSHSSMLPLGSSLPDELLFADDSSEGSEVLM
In short: as §1

SMILES | IC50 [1] [µM] | IC50 [2] [µM] | FLT3/Mer ratio (FLT3 IC50/Mer IC50) [2]
C[C@@H](CC(F)(F)F)Nc1ncc2c(C3=CCNCC3)cc([C@H]3CC[C@H](O)CC3)n2n1 [Compound 442] | ≤ 0.1 | ≤ 0.1 | ++ (“++” represents a ratio of between 10 and 100)
COC[C@H](C)Nc1ncc2c(C3=CCNCC3)cc([C@H]3CC[C@H](O)CC3)n2n1 [Compound 443] | 1 to 10 | ≤ 0.1 | +++ (“+++” represents a ratio of >100)
C[C@@H](CC(F)(F)F)Nc1ncc2c([C@H]3CC[C@@H](C(=O)N4CCOCC4)CC3)cc([C@H]3CC[C@H](O)CC3)n2n1 [Compound 446] | ≤ 0.1 | ≤ 0.1 | +++ (“+++” represents a ratio of >100)
C[C@H](CC(F)(F)F)Nc1ncc2c(C3=C[C@H]4CC[C@@H](C3)N4C(=O)OC(C)(C)C)cc([C@H]3CC[C@H](O)CC3)n2n1 [Compound 456] | ≤ 0.1 | ≤ 0.1 | +++ (“+++” represents a ratio of >100)
COC[C@H](C)Nc1ncc2c(C3=C[C@@H]4CC[C@H](C3)N4)cc([C@H]3CC[C@H](O)CC3)n2n1 [Compound 461] | 1 to 10 | ≤ 0.1 | +++ (“+++” represents a ratio of >100)
COC[C@H](C)Nc1ncc2c(C3=C[C@@H]4CC[C@H](C3)N4C(C)=O)cc([C@H]3CC[C@H](O)CC3)n2n1 [Compound 462] | 0.1 to 1 | ≤ 0.1 | +++ (“+++” represents a ratio of >100)
COC[C@H](C)Nc1ncc2c(C3=C[C@@H]4CC[C@H](C3)N4C(=O)N3CCOCC3)cc([C@H]3CC[C@H](O)CC3)n2n1 [Compound 463] | 0.1 to 1 | ≤ 0.1 | +++ (“+++” represents a ratio of >100)
COC[C@H](C)Nc1ncc2c(C3=C[C@@H]4CC[C@H](C3)N4C)cc([C@H]3CC[C@H](O)CC3)n2n1 [Compound 465] | 1 to 10 | ≤ 0.1 | +++ (“+++” represents a ratio of >100)
COC[C@H](C)Nc1ncc2c(C3=C[C@H]4CC[C@@H](C3)N4)cc([C@H]3CC[C@H](O)CC3)n2n1 [Compound 467] | 1 to 10 | ≤ 0.1 | +++ (“+++” represents a ratio of >100)
COC[C@H](C)Nc1ncc2c(C3=C[C@H]4CCC(C3)N4C(C)=O)cc([C@H]3CC[C@H](O)CC3)n2n1 [Compound 468] | 0.1 to 1 | ≤ 0.1 | +++ (“+++” represents a ratio of >100)
COC[C@H](C)Nc1ncc2c(C3=C[C@H]4CC[C@@H](C3)N4C(=O)N3CCOCC3)cc([C@H]3CC[C@H](O)CC3)n2n1 [Compound 469] | 0.1 to 1 | ≤ 0.1 | +++ (“+++” represents a ratio of >100)

The remaining lines, values ahead:

IC50 [1] [µM] | IC50 [2] [µM] | FLT3/Mer ratio (FLT3 IC50/Mer IC50) [2] | SMILES
1 to 10 | ≤ 0.1 | +++ (“+++” represents a ratio of >100) | COC[C@H](C)Nc1ncc2c(-c3cnn(C(C)(C)c4nnc(C)o4)c3)cc([C@H]3CC[C@H](O)CC3)n2n1 [Compound 440]
0.1 to 1 | ≤ 0.1 | +++ (“+++” represents a ratio of >100) | COC[C@H](C)Nc1ncc2c(-c3csc(C(=O)N4CCOCC4)c3)cc([C@H]3CC[C@H](O)CC3)n2n1 [Compound 444]
0.1 to 1 | ≤ 0.1 | +++ (“+++” represents a ratio of >100) | COC[C@H](C)Nc1ncc2c(-c3ccnc(N4C[C@H]5CC[C@@H](C4)O5)c3)cc([C@H]3CC[C@H](O)CC3)n2n1 [Compound 445]
1 to 10 | ≤ 0.1 | +++ (“+++” represents a ratio of >100) | COC[C@H](C)Nc1ncc2c(C#CC(C)(C)C(=O)N3CCOCC3)cc([C@H]3CC[C@H](O)CC3)n2n1 [Compound 449]
1 to 10 | ≤ 0.1 | +++ (“+++” represents a ratio of >100) | COC[C@H](C)Nc1ncc2c(-c3cnn(C(C)(C)C(=O)N4CCC(C)(O)CC4)c3)cc([C@H]3CC[C@H](O)CC3)n2n1 [Compound 450]
0.1 to 1 | ≤ 0.1 | +++ (“+++” represents a ratio of >100) | COC[C@H](C)Nc1ncc2c(-c3cnn(C(C)(C)C(=O)N4CCC(C)(C#N)CC4)c3)cc([C@H]3CC[C@H](O)CC3)n2n1 [Compound 451]
1 to 10 | ≤ 0.1 | +++ (“+++” represents a ratio of >100) | COC[C@H](C)Nc1ncc2c(-c3cnn(C(C)(C)CN4CCOCC4)c3)cc([C@H]3CC[C@H](O)CC3)n2n1 [Compound 459]
≤ 0.1 | ≤ 0.1 | +++ (“+++” represents a ratio of >100) | COC[C@H](C)Nc1ncc2c(-c3ccc(C(C)(C)C(=O)N4CCOCC4)s3)cc([C@H]3CC[C@H](O)CC3)n2n1 [Compound 460]
0.1 to 1 | ≤ 0.1 | +++ (“+++” represents a ratio of >100) | COC[C@H](C)Nc1ncc2c(-c3cccc(N4C[C@H]5COC[C@H]5C4)c3)cc([C@H]3CC[C@H](O)CC3)n2n1 [Compound 464]
1 to 10 | ≤ 0.1 | +++ (“+++” represents a ratio of >100) | COC[C@H](C)Nc1ncc2c(-c3cnn(C(C)(C)C(=O)N4CCN(C)CC4)c3)cc([C@H]3CC[C@H](O)CC3)n2n1 [Compound 466]
0.1 to 1 | ≤ 0.1 | +++ (“+++” represents a ratio of >100) | COC[C@H](C)Nc1ncc2c(-c3cnn([C@H]4CCN(C)C4=O)c3)cc([C@H]3CC[C@H](O)CC3)n2n1 [Compound 470]
1 to 10 | ≤ 0.1 | +++ (“+++” represents a ratio of >100) | COC[C@H](C)Nc1ncc2c(-c3cnn([C@@H]4CCN(C)C4=O)c3)cc([C@H]3CC[C@H](O)CC3)n2n1 [Compound 471]
0.1 to 1 | ≤ 0.1 | +++ (“+++” represents a ratio of >100) | COC[C@H](C)Nc1ncc2c(-c3cnn(C[C@@H]4CC(=O)N(C)C4)c3)cc([C@H]3CC[C@H](O)CC3)n2n1 [Compound 473]
0.1 to 1 | ≤ 0.1 | +++ (“+++” represents a ratio of >100) | COC[C@H](C)Nc1ncc2c(-c3cnn(C[C@@H]4CCO4)c3)cc([C@H]3CC[C@H](O)CC3)n2n1 [Compound 474]
0.1 to 1 | ≤ 0.1 | +++ (“+++” represents a ratio of >100) | COC[C@H](C)Nc1ncc2c(-c3cnn(C[C@H]4CC(=O)N(C)C4)c3)cc([C@H]3CC[C@H](O)CC3)n2n1 [Compound 475]
1 to 10 | ≤ 0.1 | +++ (“+++” represents a ratio of >100) | COC[C@H](C)Nc1ncc2c(-c3cnn(C[C@@H]4CCO4)c3)cc([C@H]3CC[C@H](O)CC3)n2n1 [Compound 478]
